# The source made the active and inactive calls. The calls are words filed in the database; no cut-off is given here.
# Columns and labels:
# [1] = Stability in human serum assessed as full-length compound remaining after 10 mins by anion-exchange HPLC; assay type: ADME, cell-free; settings: read-out: Stability
# [2] = molecular target: T1, Toll-like receptor 8 (Homo sapiens) (UniProt Q9NR97); assay: Agonist activity at human TLR8 expressed in HEK293XL cells assessed as NF-kappaB activation after 18 hrs; assay type: functional, cell-based
# T1 sequence (whole entry): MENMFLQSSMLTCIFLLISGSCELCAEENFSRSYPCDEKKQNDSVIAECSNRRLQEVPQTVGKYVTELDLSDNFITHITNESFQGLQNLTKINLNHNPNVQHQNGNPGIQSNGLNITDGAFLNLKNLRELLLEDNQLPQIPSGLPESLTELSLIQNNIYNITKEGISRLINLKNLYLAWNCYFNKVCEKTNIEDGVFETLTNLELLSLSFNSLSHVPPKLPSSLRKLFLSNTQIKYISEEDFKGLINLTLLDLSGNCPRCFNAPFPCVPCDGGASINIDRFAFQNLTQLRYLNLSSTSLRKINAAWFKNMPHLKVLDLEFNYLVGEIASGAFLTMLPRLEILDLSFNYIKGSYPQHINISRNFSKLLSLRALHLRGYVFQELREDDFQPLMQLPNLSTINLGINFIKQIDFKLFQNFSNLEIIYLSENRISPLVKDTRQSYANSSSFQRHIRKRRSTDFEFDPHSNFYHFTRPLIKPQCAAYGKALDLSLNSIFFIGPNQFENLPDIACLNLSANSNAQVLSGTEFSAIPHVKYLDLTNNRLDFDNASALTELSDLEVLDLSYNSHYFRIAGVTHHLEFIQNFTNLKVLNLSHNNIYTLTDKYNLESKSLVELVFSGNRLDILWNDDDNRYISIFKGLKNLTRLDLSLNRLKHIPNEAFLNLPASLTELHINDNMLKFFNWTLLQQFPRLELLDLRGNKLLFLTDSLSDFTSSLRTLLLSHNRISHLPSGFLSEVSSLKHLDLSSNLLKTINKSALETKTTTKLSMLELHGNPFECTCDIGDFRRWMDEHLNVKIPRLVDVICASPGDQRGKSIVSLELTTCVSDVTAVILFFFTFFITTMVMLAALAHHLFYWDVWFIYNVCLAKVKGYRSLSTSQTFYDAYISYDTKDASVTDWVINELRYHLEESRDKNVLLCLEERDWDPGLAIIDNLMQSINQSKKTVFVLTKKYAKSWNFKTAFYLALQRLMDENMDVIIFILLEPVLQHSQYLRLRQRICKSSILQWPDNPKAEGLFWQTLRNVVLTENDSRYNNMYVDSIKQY
# [3] = molecular target: T2, Toll-like receptor 7 (Homo sapiens) (UniProt Q9NYK1); assay: Agonist activity at human TLR7 expressed in HEK293XL cells assessed as NF-kappaB activation after 18 hrs; assay type: functional, cell-based
# T2 sequence (whole entry): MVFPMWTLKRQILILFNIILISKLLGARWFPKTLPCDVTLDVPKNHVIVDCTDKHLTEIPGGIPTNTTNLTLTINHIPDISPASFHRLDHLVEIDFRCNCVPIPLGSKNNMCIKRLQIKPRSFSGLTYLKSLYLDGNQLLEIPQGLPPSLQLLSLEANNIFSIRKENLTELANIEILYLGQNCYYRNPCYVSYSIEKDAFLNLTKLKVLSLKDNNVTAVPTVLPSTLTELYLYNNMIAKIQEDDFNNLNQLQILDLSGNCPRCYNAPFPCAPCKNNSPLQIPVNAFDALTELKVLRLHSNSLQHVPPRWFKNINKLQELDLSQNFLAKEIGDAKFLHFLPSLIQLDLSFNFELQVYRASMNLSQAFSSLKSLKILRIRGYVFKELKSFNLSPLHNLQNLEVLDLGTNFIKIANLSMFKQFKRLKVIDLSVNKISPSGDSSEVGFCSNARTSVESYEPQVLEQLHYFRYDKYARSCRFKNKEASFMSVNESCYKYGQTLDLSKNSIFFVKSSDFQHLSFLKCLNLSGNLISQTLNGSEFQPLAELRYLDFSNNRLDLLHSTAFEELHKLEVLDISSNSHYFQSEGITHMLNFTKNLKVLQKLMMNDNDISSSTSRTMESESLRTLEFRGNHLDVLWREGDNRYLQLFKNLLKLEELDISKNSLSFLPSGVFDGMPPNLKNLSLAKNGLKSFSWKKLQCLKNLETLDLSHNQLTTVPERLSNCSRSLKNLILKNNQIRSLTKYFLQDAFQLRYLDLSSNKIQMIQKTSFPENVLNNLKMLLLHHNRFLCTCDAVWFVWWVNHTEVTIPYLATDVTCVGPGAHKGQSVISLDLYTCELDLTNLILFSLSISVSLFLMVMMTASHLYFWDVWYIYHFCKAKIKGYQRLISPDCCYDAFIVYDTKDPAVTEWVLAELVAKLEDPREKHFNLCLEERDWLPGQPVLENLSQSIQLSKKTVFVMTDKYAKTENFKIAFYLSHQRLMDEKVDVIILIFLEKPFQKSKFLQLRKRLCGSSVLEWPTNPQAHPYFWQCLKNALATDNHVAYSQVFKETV
# [4] = test system: PBMC; assay: Stimulation of immune response in human PBMC assessed as induction of IL1-beta production at 150 ug/ml after 24 hrs; assay type: functional, cell-based
# [5] = test system: PBMC; assay: Stimulation of immune response in human PBMC assessed as induction of IL2R level at 150 ug/ml after 24 hrs; assay type: functional, cell-based
# [6] = test system: PBMC; assay: Stimulation of immune response in human PBMC assessed as induction of IL8 production at 150 ug/ml after 24 hrs; assay type: functional, cell-based
# [7] = test system: PBMC; assay: Stimulation of immune response in human PBMC assessed as induction of IL10 production at 150 ug/ml after 24 hrs; assay type: functional, cell-based
# [8] = test system: PBMC; assay: Stimulation of immune response in human PBMC assessed as induction of IL12 production at 150 ug/ml after 24 hrs; assay type: functional, cell-based
# [9] = test system: PBMC; assay: Stimulation of immune response in human PBMC assessed as induction of IFNalpha production at 150 ug/ml after 24 hrs; assay type: functional, cell-based
# [10] = test system: PBMC; assay: Stimulation of immune response in human PBMC assessed as induction of IFN-gamma production at 150 ug/ml after 24 hrs; assay type: functional, cell-based
# [11] = test system: PBMC; assay: Stimulation of immune response in human PBMC assessed as induction of MCP1 production at 150 ug/ml after 24 hrs; assay type: functional, cell-based
# [12] = test system: PBMC; assay: Stimulation of immune response in human PBMC assessed as induction of RANTES production at 150 ug/ml after 24 hrs; assay type: functional, cell-based
# [13] = test system: PBMC; assay: Stimulation of immune response in human PBMC assessed as induction of MIP1alpha production at 150 ug/ml after 24 hrs; assay type: functional, cell-based
# [14] = test system: PBMC; assay: Stimulation of immune response in human PBMC assessed as induction of MIP1beta production at 150 ug/ml after 24 hrs; assay type: functional, cell-based
# [15] = test system: PBMC; assay: Stimulation of immune response in human PBMC assessed as induction of TNFalpha production at 150 ug/ml after 24 hrs; assay type: functional, cell-based
# [16] = species on record: Homo sapiens; assay: Stimulation of immune response in human pDC assessed as induction of IFN-gamma production at 150 ug/ml after 24 hrs; assay type: functional
# [17] = species on record: Homo sapiens; assay: Stimulation of immune response in human pDC assessed as induction of IFNalpha production at 150 ug/ml after 24 hrs; assay type: functional
# [18] = species on record: Homo sapiens; assay: Stimulation of immune response in human pDC assessed as induction of IL12 production at 150 ug/ml after 24 hrs; assay type: functional
# [19] = species on record: Homo sapiens; assay: Stimulation of immune response in human pDC assessed as induction of TNFalpha production at 150 ug/ml after 24 hrs; assay type: functional
# [20] = species on record: Homo sapiens; assay: Stimulation of immune response in human pDC assessed as induction of MIP1alpha production at 150 ug/ml after 24 hrs; assay type: functional
# [21] = species on record: Homo sapiens; assay: Stimulation of immune response in human pDC assessed as induction of MIP1beta production at 150 ug/ml after 24 hrs; assay type: functional
# [22] = test system: Mus musculus; assay: Stimulation of immune response in C57BL/6 mouse assessed as induction of serum IL12 production at 50 mg/kg, sc after 2 hrs by luminex multiplex assay; assay type: functional, organism-based; design: dose 50 mg/kg
remaining at 10 min [1],Activity [2],Activity [3],SMILES,Activity [4],Activity [5],Activity [6],Activity [7],Activity [8],Activity [9],Activity [10],Activity [11],Activity [12],Activity [13],Activity [14],Activity [15],Activity [16],Activity [17],Activity [18],Activity [19],Activity [20],also measured
90%,inactive,inactive,Nc1ncnc2c1ncn2[C@@H]1O[C@H](CO)[C@@H](OP(=O)(S)OC[C@H]2O[C@@H](n3cnc4c(N)ncnc43)[C@H](O)[C@@H]2OP(=O)(S)OC[C@H]2O[C@@H](n3cnc4c(N)ncnc43)[C@H](O)[C@@H]2OP(=O)(S)OC[C@H]2O[C@@H](n3cnc4c(N)ncnc43)[C@H](O)[C@@H]2OP(=O)(S)OC[C@H]2O[C@@H](n3cnc4c(N)ncnc43)[C@H](O)[C@@H]2OP(=O)(S)OC[C@H]2O[C@@H](n3cnc4c(N)ncnc43)[C@H](O)[C@@H]2OP(=O)(S)OC[C@H]2O[C@@H](n3cnc4c(N)ncnc43)[C@H](O)[C@@H]2OP(=O)(S)OC[C@H]2O[C@@H](n3cnc4c(N)ncnc43)[C@H](O)[C@@H]2OP(=O)(S)OC[C@H]2O[C@@H](n3cnc4c(N)ncnc43)[C@H](O)[C@@H]2OP(=O)(S)OC[C@H]2O[C@@H](n3cnc4c(N)ncnc43)[C@H](O)[C@@H]2OP(=O)(S)OC[C@H]2O[C@@H](n3cnc4c(N)ncnc43)[C@H](O)[C@@H]2OP(=O)(S)OCC(O)COP(=O)(S)O[C@H]2[C@@H](O)[C@H](n3cnc4c(N)ncnc43)O[C@@H]2COP(=O)(S)O[C@H]2[C@@H](O)[C@H](n3cnc4c(N)ncnc43)O[C@@H]2COP(=O)(S)O[C@H]2[C@@H](O)[C@H](n3cnc4c(N)ncnc43)O[C@@H]2COP(=O)(S)O[C@H]2[C@@H](O)[C@H](n3cnc4c(N)ncnc43)O[C@@H]2COP(=O)(S)O[C@H]2[C@@H](O)[C@H](n3cnc4c(N)ncnc43)O[C@@H]2COP(=O)(S)O[C@H]2[C@@H](O)[C@H](n3cnc4c(N)ncnc43)O[C@@H]2COP(=O)(S)O[C@H]2[C@@H](O)[C@H](n3cnc4c(N)ncnc43)O[C@@H]2COP(=O)(S)O[C@H]2[C@@H](O)[C@H](n3cnc4c(N)ncnc43)O[C@@H]2COP(=O)(S)O[C@H]2[C@@H](O)[C@H](n3cnc4c(N)ncnc43)O[C@@H]2COP(=O)(S)O[C@H]2[C@@H](O)[C@H](n3cnc4c(N)ncnc43)O[C@@H]2COP(=O)(S)O[C@H]2[C@@H](O)[C@H](n3cnc4c(N)ncnc43)O[C@@H]2CO)[C@H]1O (some centres undefined),inactive,inactive,inactive,inactive,inactive,inactive,inactive,inactive,inactive,inactive,inactive,inactive,inactive,inactive,inactive,inactive,inactive,Activity [21]: inactive; Activity [22]: inactive
75%,Dose-dependent effect,inactive,Nc1ccn([C@@H]2O[C@H](COP(O)(=S)O[C@H]3[C@@H](O)[C@H](n4cnc5c(=O)[nH]c(N)nc54)O[C@@H]3COP(O)(=S)O[C@H]3[C@@H](O)[C@H](n4ccc(=O)[nH]c4=O)O[C@@H]3CO)[C@@H](OP(O)(=S)OC[C@H]3O[C@@H](n4ccc(=O)[nH]c4=O)[C@H](O)[C@@H]3OP(O)(=S)OC[C@H]3O[C@@H](n4cnc5c(=O)[nH]c(N)nc54)[C@H](O)[C@@H]3OP(O)(=S)OC[C@H]3O[C@@H](n4ccc(N)nc4=O)[C@H](O)[C@@H]3OP(O)(=S)OC[C@H]3O[C@@H](n4ccc(=O)[nH]c4=O)[C@H](O)[C@@H]3OP(O)(=S)OC[C@H]3O[C@@H](n4ccc(=O)[nH]c4=O)[C@H](O)[C@@H]3OP(O)(=S)OC[C@H]3O[C@@H](n4cnc5c(=O)[nH]c(N)nc54)[C@H](O)[C@@H]3OP(O)(=S)OC[C@H]3O[C@@H](n4ccc(=O)[nH]c4=O)[C@H](O)[C@@H]3OP(O)(=S)OC[C@H]3O[C@@H](n4cnc5c(=O)[nH]c(N)nc54)[C@H](O)[C@@H]3OP(O)(=S)OCC(O)COP(O)(=S)O[C@H]3[C@@H](O)[C@H](n4cnc5c(=O)[nH]c(N)nc54)O[C@@H]3COP(O)(=S)O[C@H]3[C@@H](O)[C@H](n4ccc(=O)[nH]c4=O)O[C@@H]3COP(O)(=S)O[C@H]3[C@@H](O)[C@H](n4cnc5c(=O)[nH]c(N)nc54)O[C@@H]3COP(O)(=S)O[C@H]3[C@@H](O)[C@H](n4ccc(=O)[nH]c4=O)O[C@@H]3COP(O)(=S)O[C@H]3[C@@H](O)[C@H](n4ccc(=O)[nH]c4=O)O[C@@H]3COP(O)(=S)O[C@H]3[C@@H](O)[C@H](n4ccc(N)nc4=O)O[C@@H]3COP(O)(=S)O[C@H]3[C@@H](O)[C@H](n4cnc5c(=O)[nH]c(N)nc54)O[C@@H]3COP(O)(=S)O[C@H]3[C@@H](O)[C@H](n4ccc(=O)[nH]c4=O)O[C@@H]3COP(O)(=S)O[C@H]3[C@@H](O)[C@H](n4ccc(N)nc4=O)O[C@@H]3COP(O)(=S)O[C@H]3[C@@H](O)[C@H](n4cnc5c(=O)[nH]c(N)nc54)O[C@@H]3COP(O)(=S)O[C@H]3[C@@H](O)[C@H](n4ccc(=O)[nH]c4=O)O[C@@H]3CO)[C@H]2O)c(=O)n1 (some centres undefined),Active,Active,Active,Active,Active,Active,Active,Active,Active,Active,Active,Active,Active,inactive,Active,Active,Active,Activity [21]: Active; Activity [22]: inactive
